For orientation: GI50 means the concentration at which growth is held to half of that of the control. Low values mean more potent growth inhibition, high ones less potent growth inhibition. The term inhibition denotes the change of the read-out against control, counted positive when it falls.

From patent publication US20200190062A1, “HETEROCYCLIC COMPOUND AND PHARMACEUTICAL COMPOSITION COMPRISING SAME” (BEYONDBIO INC., priority 2015, published 2020) come the findings set out here.

Assay [1] deals with T1, CDK1/cyclinB (Homo sapiens, UniProt P06493).
T1 construct: purchased Merck Millipore
The assay can be described thus: Inhibition of CDK enzyme activity (ADP-Glo kinase assay). Type of assay: biochemical. The conditions noted are these: 10 uM ATP, histone H1 substrate. (ADP-Glo first removes unused ATP, then detects ADP through luciferase.)

Assay [2] has as its target T2, CDK2/cyclinE (Homo sapiens, UniProt P24941).
T2 construct: purchased Merck Millipore
Described as above. The conditions noted are these: 10 uM ATP, histone H1 substrate. Type of assay: biochemical. In outline:
(§1)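 Kinase reactions in 50 mM Tris-HCl pH 7.5 with MgCl2, EGTA, EDTA and DTT, at 10 µM ATP. CDK2/cyclinE and CDK5/p25 were used at 10 nM and CDK6/cyclinD3 at 50 nM with 0.125 mg/ml histone H1; CDK4/cyclinD1 was used at 20 nM with 0.125 mg/ml Rb protein. After 60 min at 30 °C, ADP was read by ADP-Glo luminescence and IC50 taken from % inhibition versus no-compound control.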

Assay [3] addresses T3, CDK4/cyclinD1 (Homo sapiens, UniProt P11802).
T3 construct: purchased Signalchem (US)
The description is as above. The format is biochemical. The conditions noted are these: 10 uM ATP, Rb protein substrate; read-out: IC50 CDK4/cyclinD. The gist of the method: as §1

Assay [4] addresses T4, CDK5/p25 (Homo sapiens, UniProt Q00535).
T4 construct: purchased Merck Millipore
The assay is described as above. The format is biochemical. The conditions noted are these: 10 uM ATP, histone H1 substrate. In outline: as §1

Assay [5] deals with T5, CDK6/cyclinD3 (Homo sapiens, UniProt Q00534).
T5 construct: purchased Merck Millipore
The assay is described as above. Type of assay: biochemical. The conditions noted are these: 10 uM ATP, histone H1 substrate; read-out: IC50 CDK6/cyclinD. In outline: as §1

The test system of assay [6] is A549. The assay can be described thus: Inhibition of cancer cell proliferation (MTT). The conditions noted are these: Homo sapiens, A549, 72 h. Type of assay: cell-based, human. In outline:
(§2)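 Plate 3000 cells/well and let them adhere for 16 h. Add compound (0.004, 0.013, 0.04, 0.12, 0.37, 1.1, 3.3, 10 uM; 0.08% DMSO) and culture for 72 h. Add MTT for 2 h, dissolve formazan in DMSO, read at 535 nm, and fit GI50.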

The test system of assay [7] is NCI-H23. The assay can be described thus: Inhibition of cancer cell proliferation (MTT). The format is cell-based, human. The conditions noted are these: Homo sapiens, NCI-H23, 72 h. In outline: as §2
Assay [8] relates to Human glioblastoma U-87MG cell line. The assay can be described thus: Tumor growth inhibition by combined administration in an animal model (U-87MG xenograft). The conditions noted are these: oral daily for 30 days; for tumor growth inhibition: vs vehicle control.
Procedure: Human glioblastoma U-87MG cell line of 5×10^6 cells/0.1 ml PBS was injected subcutaneously into the right flank of a Balb/c nude mouse. When a tumor grew to 150 mm^3, 5 mice were assigned for each group so that tumor sizes of all groups are consistent and a test compound was orally administered daily. Tumor size was measured three times a week using Caliper. […] For the combined administration, TMZ was orally administered daily for the first 5 days. For the single administration, the compound of Example 61 was orally administered daily for 30 days. For the combined administration, the compound of Example 61 was administered orally daily for 34 days. 20% propylene glycol (PG) was used as a vehicle control. Tumor size (volume) was calculated from the tumor length measured in each animal using the following Equation 1.
Tumor volume=(length of major axis×length of minor axis)/2 [Equation 1]
For assay [9], the system named is T98G. The assay can be described thus: Inhibition of cancer cell proliferation (MTT). Type of assay: cell-based, human. The gist of the method:
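Growth inhibition over 72 h was measured in attached cultures (3000 per well) with 0.08% DMSO as the control. Viable cells were detected with a 2 h MTT step, and the concentration giving 50% inhibition was taken as GI50.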

The subject of assay [10] is Aβ (amyloid β protein). The assay can be described thus: Inhibition of Aβ generation in B103/APP cells (Aβ42 ELISA). The format is cell-based. The conditions noted are these: Rattus norvegicus, 72 hrs. On the procedure:
The APP gene was inserted into B103 cells so that APP could be stably expressed and the resulting B103/APP cells were used to confirm inhibition of APP phosphorylation and Aβ generation.
Further, to confirm whether Aβ generation is reduced due to APP phosphorylation inhibition, 5×10^5 B103/APP cells were cultured in a 6-well plate for 16 hrs. Afterwards, the compounds obtained in the above Examples were added at 100 nM, 75 nM, 50 nM, 25 nM, 12.5 nM to a medium containing 500 ug/ml of G418 and 0.5% FBS and incubated for 72 hrs. After 72 hrs, the amount of Aβ was quantified using the medium by Human Aβ42 ELISA kit (Invitrogen).

The structures appear in SMILES notation. Structures can show the parent of a compound that is named as a salt. A value given as a limit tells only on which side of the number the result lay.

T3 sequence (P11802 whole entry): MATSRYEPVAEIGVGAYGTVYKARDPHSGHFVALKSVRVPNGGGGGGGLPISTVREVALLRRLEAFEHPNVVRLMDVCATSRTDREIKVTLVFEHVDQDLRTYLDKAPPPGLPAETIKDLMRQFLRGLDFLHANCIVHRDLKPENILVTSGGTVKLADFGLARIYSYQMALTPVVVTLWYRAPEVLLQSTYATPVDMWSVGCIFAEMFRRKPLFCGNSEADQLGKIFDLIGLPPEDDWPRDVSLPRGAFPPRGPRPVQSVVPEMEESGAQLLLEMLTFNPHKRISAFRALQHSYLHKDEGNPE
T3 sequence (P24385 whole entry partner): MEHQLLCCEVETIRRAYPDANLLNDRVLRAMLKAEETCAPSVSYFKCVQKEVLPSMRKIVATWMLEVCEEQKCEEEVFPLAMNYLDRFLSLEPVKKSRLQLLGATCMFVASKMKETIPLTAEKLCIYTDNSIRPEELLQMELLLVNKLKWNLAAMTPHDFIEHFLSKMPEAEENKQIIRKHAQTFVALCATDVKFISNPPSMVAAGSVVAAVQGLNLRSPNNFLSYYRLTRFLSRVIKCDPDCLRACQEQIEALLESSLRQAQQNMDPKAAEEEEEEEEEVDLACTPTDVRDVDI
T4 sequence (Q00535 whole entry): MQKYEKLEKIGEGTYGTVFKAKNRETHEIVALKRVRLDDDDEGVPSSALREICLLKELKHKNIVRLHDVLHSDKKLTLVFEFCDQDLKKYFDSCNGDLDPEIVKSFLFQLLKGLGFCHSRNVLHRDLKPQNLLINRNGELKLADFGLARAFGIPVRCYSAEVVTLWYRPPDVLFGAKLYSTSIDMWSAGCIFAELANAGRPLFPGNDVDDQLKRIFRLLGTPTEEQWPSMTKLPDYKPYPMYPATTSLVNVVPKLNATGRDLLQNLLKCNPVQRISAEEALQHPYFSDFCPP
T4 sequence (Q15078 99-307 partner limits assumed): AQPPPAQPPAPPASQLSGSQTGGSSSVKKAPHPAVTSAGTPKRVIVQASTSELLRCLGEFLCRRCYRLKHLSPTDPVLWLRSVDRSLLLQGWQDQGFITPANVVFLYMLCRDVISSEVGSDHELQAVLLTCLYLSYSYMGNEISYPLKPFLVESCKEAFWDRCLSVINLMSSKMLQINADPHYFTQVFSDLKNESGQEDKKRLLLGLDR
T5 sequence (Q00534 whole entry): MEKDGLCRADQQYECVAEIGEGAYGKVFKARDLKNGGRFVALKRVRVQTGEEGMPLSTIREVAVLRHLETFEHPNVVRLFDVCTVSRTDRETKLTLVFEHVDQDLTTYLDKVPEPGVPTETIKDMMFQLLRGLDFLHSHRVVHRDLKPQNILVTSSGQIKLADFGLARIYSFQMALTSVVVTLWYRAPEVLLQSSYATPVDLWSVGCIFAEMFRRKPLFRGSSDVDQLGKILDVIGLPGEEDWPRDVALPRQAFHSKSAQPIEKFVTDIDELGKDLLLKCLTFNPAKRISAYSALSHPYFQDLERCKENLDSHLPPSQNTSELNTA
T5 sequence (P30281 whole entry partner): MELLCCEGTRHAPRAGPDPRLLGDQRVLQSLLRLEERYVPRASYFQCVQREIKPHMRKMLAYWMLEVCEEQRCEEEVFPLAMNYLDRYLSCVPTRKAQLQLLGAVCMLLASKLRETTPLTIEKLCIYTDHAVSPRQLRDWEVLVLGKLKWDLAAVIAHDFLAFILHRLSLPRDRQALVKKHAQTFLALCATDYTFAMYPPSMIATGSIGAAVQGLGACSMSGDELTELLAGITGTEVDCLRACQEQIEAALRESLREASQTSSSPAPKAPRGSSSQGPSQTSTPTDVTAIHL
T1 sequence (P06493 whole entry): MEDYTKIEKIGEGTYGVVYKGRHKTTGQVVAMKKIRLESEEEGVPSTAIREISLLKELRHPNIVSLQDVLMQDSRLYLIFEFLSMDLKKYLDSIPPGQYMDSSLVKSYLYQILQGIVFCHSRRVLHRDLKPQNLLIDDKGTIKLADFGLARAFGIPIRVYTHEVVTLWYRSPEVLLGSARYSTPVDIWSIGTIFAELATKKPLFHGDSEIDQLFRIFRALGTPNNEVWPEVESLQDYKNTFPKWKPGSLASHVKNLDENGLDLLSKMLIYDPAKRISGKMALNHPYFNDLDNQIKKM
T1 sequence (P14635 whole entry partner): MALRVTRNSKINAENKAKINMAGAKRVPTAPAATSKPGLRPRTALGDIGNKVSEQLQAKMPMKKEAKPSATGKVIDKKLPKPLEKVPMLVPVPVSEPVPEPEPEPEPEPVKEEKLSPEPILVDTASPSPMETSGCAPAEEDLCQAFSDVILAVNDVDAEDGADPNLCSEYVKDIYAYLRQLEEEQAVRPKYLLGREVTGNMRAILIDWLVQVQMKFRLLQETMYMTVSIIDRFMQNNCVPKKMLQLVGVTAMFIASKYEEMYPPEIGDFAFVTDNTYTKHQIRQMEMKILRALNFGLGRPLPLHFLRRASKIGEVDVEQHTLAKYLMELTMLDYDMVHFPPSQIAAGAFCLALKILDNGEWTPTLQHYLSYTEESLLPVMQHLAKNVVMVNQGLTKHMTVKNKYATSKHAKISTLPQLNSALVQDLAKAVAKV

On to `Nc1nccc(-c2ccc(O)c(-c3ccnc(N)n3)n2)n1` [Example 1, 2,6-bis(2-aminopyrimidin-4-yl)pyridin-3-ol], for which the IC50 was 1.5 nM in assay [1]; 1.5 nM in [2]; 855 nM in assay [3]; 2.4 nM in assay [4]; more than 200 nM in assay [5].

As to `Nc1nccc(-c2ccc(O)c(-c3ccnc(N)n3)n2)n1` [Example 61, 2,6-bis(2-aminopyrimidin-4-yl)pyridin-3-ol 3hydrochloride], the IC50 was determined as 0.4 nM in assay [1], 0.5 nM in [2] and 0.9 nM in assay [4]. For the same compound, the values for the GI50 in [6] and in assay [7] were 210 nM and 430 nM, respectively. The Tumor size amounted to 3503.3 ± 674.9 mm^3 in assay [8] (15 mpk alone) and 2015.0 ± 1023 mm^3 in [8] (30 mpk alone). Besides, the tumor growth inhibition in assay [8] (15 mpk alone) turned out to be 16.8%; in [8] (30 mpk alone), 52.2%.

Take `Nc1nccc(-c2nc(-c3ccnc(N)c3F)ccc2O)n1` [Example 8]: the IC50 in assay [1] worked out at 2.1 nM; in assay [2] it was 2.1 nM; in [3], 108 nM; in [4], 0.22 nM; in assay [5] it was 47 nM. Further, the concentration for 50% growth inhibition (GI50) in [9] (72 hrs) is 190 nM.

Regarding `Nc1cc(-c2ccc(O)c(-c3ccnc(N)n3)n2)ccn1` [Example 10, 2′-amino-6-(2-aminopyrimidin-4-yl)-[2,4′-bipyridin]-5-ol], the IC50 in assay [1] is 3.6 nM; in assay [2] it was 2.6 nM; in [3] it was 203 nM; in assay [4] it was 1.2 nM; in assay [5], more than 200 nM.

Turning to `Cc1cc(-c2nc(-c3ccnc(N)c3F)ccc2O)nc(N)n1` [Example 71, 2′-amino-6-(2-amino-6-methylpyrimidin-4-yl)-3′-fluoro-[2,4′-bipyridin]-5-ol 3hydrochloride], the IC50 in [1] amounted to 0.2 nM; in assay [2] it was 0.3 nM; in assay [3], 125 nM; in assay [4] it was 0.3 nM; in assay [5] it was 29.8 nM. In addition, the GI50 came out at 20 nM in assay [6]; 40 nM in assay [7]; 60 nM in assay [9] (Homo sapiens, T98G, 72 h). In addition, in assay [10] (12.5 nM), the inhibition at 0.0125 µM worked out at 37.6%. The compound further had an inhibition at 0.025 µM in assay [10] (25 nM) of 36.2%. In assay [10] (50 nM), this compound registered an inhibition at 0.05 µM of 46.7%. In assay [10] (75 nM), this compound registered an inhibition at 0.075 µM of 76.8%. Further, in assay [10] (100 nM), the inhibition at 0.1 µM is 100%.
